The text below walks through data of patent US7179461B2, “Plasminogen activator to prevent corneal and subepithelial haze after laser vision correction surgery” (The Johns Hopkins University, priority 2000, dated 2007).

Where two headings read alike, the source gives them in different places.

One data set has as its system corneal haze after PRK. The conditions noted are these: rabbits, excimer laser PRK; cited from earlier work.
Data set [1] has as its target T1, urokinase-type plasminogen activator (uPA) in rabbit tears (Oryctolagus cuniculus, UniProt Q8MHY7).
T1 construct: from tissue; host or cells: rabbit tear fluid collected with glass capillaries
Put plainly: Plasminogen activator activity in rabbit tears after PRK, spectrophotometric method with human plasminogen and S-2251. The format is in vivo, New Zealand rabbits. As for the experimental part: Both eyes in each of 8 rabbits underwent PRK treatment. One eye of each rabbit was treated with a serine protease inhibitor (SPI) over the first 7 days to inactivate uPA in the tears and on the surface of the cornea. uPA in the tear samples was measured by a spectrophotometric method using human plasminogen and chromogenic peptide substrate S-2251.
Materials and Methods Sixteen eyes of eight normal healthy New Zealand rabbits (3.0–3.5 kg) underwent PRK surgery for spherical correction using the Schwind Keratom II ArF excimer laser (193 nm), performed by the same surgeon at Vital-Laser LLC, Department of Ophthalmology, University Medical School of Debrecen. Animals were handled and treated in adherence to the ARVO Statement for the Use of Animals in Ophthalmic and Vision Research. De-epithelialization was performed with a blunt Keratome Blade knife after epithelial marking with a 6.0–6.5 mm Hoffer trephine. The epithelium was scraped gently from periphery to center. Residual epithelial debris was removed with a sterile microsponge.
Topical anesthetic (0.4% oxybuprocaine hydrochloride) eye drops were administered twice before the surgery. General anesthesia was accomplished by intravenous injection of ketamine-xylazine (2.2:1 ratio, 10 mg/kg). The PRK surgeries were performed on the morning of day 1. The postoperative treatment included antibiotic eye drops, Ciloxan (Alcon), twelve times (hourly) on day 1 and five times (every two hours) on five additional days (postoperative days 2–5 and 7). FLUCON™ (Alcon) and TEARS NATURALE™ (Alcon) were given 5 times daily (every two hours) during the first postoperative month, reduced to 4 times daily (every three hours) for the second month and 3 times daily (every four hours) for the third month. All rabbits received follow-up examinations at 1, 3 and 6 months following the PRK procedure.
In addition, the left eye of each rabbit received 1 drop of 10,000 KIE/ml serine protease inhibitor (SPI), aprotinin (Gordox, Richter Gideon Rt., Budapest), twelve times (hourly) on day 1 and five times (every two hours) on five additional days (postoperative days 2–5 and 7). This was designated the “With-SPI” group. The right eyes were not treated with SPI and were designated the “No-SPI” group. After the seventh day, identical treatment was used on both eyes. No other treatment was used during the six month follow-up period. […] Lottenberg R, Sjak-Shie N, Fazleabas A T, Roberts R M. Aprotinin inhibits urokinase but not tissue-type plasminogen activator. Thromb Res 1988;49:549–556; and Fritz H, Wunderer G. Biochemistry and applications of aprotinin, the kallikrein inhibitor from bovine organs. Arzneim Forsch 1983;33:479–494.
Tear samples for plasminogen activator activity analyses were obtained on the day before the PRK surgery (day 0). Tear samples were collected within minutes after PRK (day 1), before treatment with any eye drops. Daily on postoperative days 2–5, on postoperative day 7 and every fourth day thereafter for three months (91 days), tears were sampled in the morning prior to the administration of any eye drops on the given day so that SPI treatment would not change the uPA levels.
Samples consisted of tears collected with glass capillaries using i.m. injection of pilocarpine hydrochloride (5 mg/kg) for stimulation. Tears were taken from the lower tear meniscus and care was taken not to touch the conjunctiva. The same collection method was used throughout the study. The duration of the sampling time was recorded and the secretion rate was calculated in μl/min, dividing the obtained tear volume by the time of sample collection. Samples used in this investigation had secretion rates of 15–50 μl/min. Samples were centrifuged (1800 rpm) for 8–10 minutes right after sample collection and supernatants were immediately deep-frozen at −80° C. and were thawed only once for measurements. […]

Data set [2] has as its target urokinase-type plasminogen activator (Homo sapiens, UniProt P00749). The conditions noted are these: cited from earlier work.
Data set [3] has as its system rabbit corneal endothelium. The conditions noted are these: perfused in vitro for three hours, concentrations up to 5,000 IU/ml; cited from earlier work.

T1 sequence (Q8MHY7 17-433): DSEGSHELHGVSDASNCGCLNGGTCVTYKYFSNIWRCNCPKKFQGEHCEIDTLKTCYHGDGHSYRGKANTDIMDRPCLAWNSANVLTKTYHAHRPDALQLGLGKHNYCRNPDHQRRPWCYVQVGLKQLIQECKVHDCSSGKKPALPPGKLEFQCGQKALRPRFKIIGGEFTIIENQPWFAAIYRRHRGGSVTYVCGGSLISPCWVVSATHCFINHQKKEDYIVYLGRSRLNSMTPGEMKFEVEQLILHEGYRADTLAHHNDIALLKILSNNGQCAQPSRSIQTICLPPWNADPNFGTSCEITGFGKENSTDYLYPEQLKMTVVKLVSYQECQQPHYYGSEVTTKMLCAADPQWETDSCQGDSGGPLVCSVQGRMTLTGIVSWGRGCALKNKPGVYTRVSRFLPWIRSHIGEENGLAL

Take `CO[C@@]12[C@H](COC(N)=O)C3=C(C(=O)C(C)=C(N)C3=O)N1C[C@@H]1N[C@@H]12` [mitomycin C]: the “Effect on corneal haze after PRK” value with corneal haze after PRK is “reduce haze after PRK”.

In the case of aprotinin [SPI], in data set [1] (SPI-treated rabbit eyes, SPI over first 7 days), the “Day by which mean uPA levels returned to preoperative levels” value turned out to be 15 days. In addition, the “uPA activity, mean value averaged over days 1–7” value in data set [1] (SPI-treated rabbit eyes, period of SPI suppression) was 0.13 (0.15) IU/ml. Besides, the “Mean uPA activity on days 1–7 lower than the equilibrium plasminogen activator activity level” value in data set [1] (SPI-treated rabbit eyes, versus days 19–91 level, p<0.001) amounted to 95%. The “PAA: With-SPI, mean (SD), equilibrium level” value in data set [1] (averaged over days 19–91, rabbit tears) is reported as 2.88 (0.22) IU/ml. In addition, the “PAA: With-SPI, mean (SD)” value in data set [1] (day 0 (day before PRK, before SPI), rabbit tears, 8 eyes) is listed as 2.77 (0.26) IU/ml; in data set [1] (day 1 (within minutes after PRK, before eye drops), rabbit tears), 0.42 (0.47) IU/ml; in data set [1] (day 2, rabbit tears, sampled in the morning before SPI drops, 10,000 KIE/ml SPI), 0.18 (0.21) IU/ml; in data set [1] (day 3, rabbit tears, sampled before SPI drops), 0.04 (0.03) IU/ml; in data set [1] (day 4, rabbit tears, sampled before SPI drops) it was 0.03 (0.04) IU/ml; in data set [1] (day 5, rabbit tears, sampled before SPI drops), 0.05 (0.05) IU/ml. Besides, the “PAA: With-SPI, mean (SD)” value in data set [1] (day 7, rabbit tears, sampled before SPI drops) is recorded as 0.05 (0.04) IU/ml; in data set [1] (day 11 (after end of SPI treatment), rabbit tears), 2.63 (0.18) IU/ml; in data set [1] (day 15, rabbit tears), 2.76 (0.18) IU/ml. Further, the figures for the “Inhibition of plasminogen activator (urokinase) activity” value in data set [2] and in data set [2] (listed as Aprotinin) were “effective inhibitor of plasminogen activator activity” and “especially effective for inhibiting urokinase”, respectively.

In the case of urokinase, in data set [3], the “Endothelial mosaic under scanning electron microscopic scrutiny” value is on record as “retains a normal endothelial mosaic”, the “Swelling of rabbit corneas” value was “does not induce meaningful swelling” and the “Toxicity to rabbit corneal endothelium” value is reported as “non-toxic”.
